Experimental data: US20090082337A1, “Compositions Comprising Quinolone and Methods for Treating or Controlling Infections” (priority 2007, published 2009)
Values after ≈ are worked out from the molar mass of the structure shown.

test system: Ofloxacin-resistant Enterobacteriaceae; assay: organism not typed; type: cell-based

Compared with `CCn1cc(C(=O)O)c(=O)c2cc(F)c(N3CCNCC3)cc21` [Norfloxacin], `CC1COc2c(N3CCN(C)CC3)c(F)cc3c(=O)c(C(=O)O)cn1c23` (stereo not drawn) [Ofloxacin, ofloxacin] is 2-fold lower in MIC90: 128 µg/mL (≈ 401 µM) for the first, 64 µg/mL (≈ 177 µM) for the second.

In the case of `N[C@@H]1CCCCN(c2c(F)cc3c(=O)c(C(=O)O)cn(C4CC4)c3c2Cl)C1` [Compound Having Formula IV], the MIC90 is reported as 16 µg/mL.
